pEC50, pKi: −log10 of the molar value. Where a name gives a salt, the structure may show the parent alone. Read-outs that look alike come from different tables or passages of the source.
Legend:
[1] = target: T1, high affinity CNS nicotinic receptors (Rattus norvegicus, UniProt P09483+P12390); assay: biochemical; format: binding; details: calculated from IC50 values using the method of Cheng et al.
T1 construct: from tissue

[2] = tested on: CNS nicotinic receptors (dopamine release); assay: Determination of dopamine release; format: cell-based; details: for EC50: read-out: Dopamine Release EC50 (nM); for Emax: read-out: Dopamine Release Emax
[3] = target: T2, muscle receptors (nicotinic receptors of human muscle) (Homo sapiens, UniProt P02708+P07510+Q07001); assay: Determination of interaction with muscle; format: cell-based; details: maximal activation (Emax) as percentage of maximal activation induced by (S)-(-)-nicotine
T2 construct: endogenous in cells; host or cells: cell preparations derived from muscle
T2 sequence (P02708 21-457): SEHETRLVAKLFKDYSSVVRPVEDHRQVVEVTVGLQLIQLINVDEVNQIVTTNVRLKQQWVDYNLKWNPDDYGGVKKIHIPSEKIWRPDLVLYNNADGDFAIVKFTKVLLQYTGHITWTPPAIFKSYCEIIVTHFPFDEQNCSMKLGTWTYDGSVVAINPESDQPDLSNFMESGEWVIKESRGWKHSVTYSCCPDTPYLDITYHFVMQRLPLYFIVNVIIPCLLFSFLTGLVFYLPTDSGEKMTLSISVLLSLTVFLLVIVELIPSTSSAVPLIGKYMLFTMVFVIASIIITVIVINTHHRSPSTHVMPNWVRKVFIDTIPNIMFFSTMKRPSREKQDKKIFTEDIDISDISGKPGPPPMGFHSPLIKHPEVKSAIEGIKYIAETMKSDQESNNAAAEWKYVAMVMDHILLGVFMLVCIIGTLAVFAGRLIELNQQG
T2 sequence (P11230 24-501 partner): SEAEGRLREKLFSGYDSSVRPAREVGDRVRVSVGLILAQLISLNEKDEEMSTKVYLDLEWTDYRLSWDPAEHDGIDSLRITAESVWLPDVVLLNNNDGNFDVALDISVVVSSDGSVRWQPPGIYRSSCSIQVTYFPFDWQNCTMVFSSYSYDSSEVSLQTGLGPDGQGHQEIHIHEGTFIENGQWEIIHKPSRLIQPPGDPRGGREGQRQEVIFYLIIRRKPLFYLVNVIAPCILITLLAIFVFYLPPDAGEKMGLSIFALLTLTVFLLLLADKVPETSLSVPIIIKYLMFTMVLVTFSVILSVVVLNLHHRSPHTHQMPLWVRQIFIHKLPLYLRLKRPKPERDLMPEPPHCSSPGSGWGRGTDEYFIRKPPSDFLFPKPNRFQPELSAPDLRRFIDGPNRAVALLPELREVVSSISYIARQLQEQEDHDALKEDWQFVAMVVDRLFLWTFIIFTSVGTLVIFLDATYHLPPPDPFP
T2 sequence (Q07001 22-517): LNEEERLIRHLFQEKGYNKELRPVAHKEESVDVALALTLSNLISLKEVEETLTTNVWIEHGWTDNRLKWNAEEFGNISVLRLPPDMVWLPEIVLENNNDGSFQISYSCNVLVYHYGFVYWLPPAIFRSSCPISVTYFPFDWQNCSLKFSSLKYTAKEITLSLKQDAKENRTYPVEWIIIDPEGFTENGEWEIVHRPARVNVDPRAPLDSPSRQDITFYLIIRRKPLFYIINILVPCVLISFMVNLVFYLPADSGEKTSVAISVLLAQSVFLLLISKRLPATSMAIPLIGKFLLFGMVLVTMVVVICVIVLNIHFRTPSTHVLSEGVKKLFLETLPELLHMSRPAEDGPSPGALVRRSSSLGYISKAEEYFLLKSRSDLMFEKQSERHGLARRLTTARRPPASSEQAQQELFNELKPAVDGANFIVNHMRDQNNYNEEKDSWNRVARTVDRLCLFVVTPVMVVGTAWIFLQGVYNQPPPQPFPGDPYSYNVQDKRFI
T2 sequence (P07510 23-517): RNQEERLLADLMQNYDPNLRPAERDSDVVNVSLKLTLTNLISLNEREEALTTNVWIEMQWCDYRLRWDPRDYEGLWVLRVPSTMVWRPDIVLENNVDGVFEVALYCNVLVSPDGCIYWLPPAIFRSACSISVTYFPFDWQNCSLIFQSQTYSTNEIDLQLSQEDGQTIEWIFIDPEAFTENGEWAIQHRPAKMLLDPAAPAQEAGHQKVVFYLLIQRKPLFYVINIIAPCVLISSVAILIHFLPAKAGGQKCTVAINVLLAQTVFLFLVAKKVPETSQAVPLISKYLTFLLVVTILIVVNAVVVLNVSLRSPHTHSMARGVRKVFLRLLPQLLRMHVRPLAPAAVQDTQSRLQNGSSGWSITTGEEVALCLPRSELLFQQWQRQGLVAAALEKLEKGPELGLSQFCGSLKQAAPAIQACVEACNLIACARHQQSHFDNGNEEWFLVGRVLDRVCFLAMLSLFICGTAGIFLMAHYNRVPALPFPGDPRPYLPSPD
Description: The compounds of the present invention, when employed in effective amounts in accordance with the method of the present invention, lack the ability to elicit activation of nicotinic receptors of human muscle to any significant degree. […] Generally, typical compounds useful in carrying out the present invention activate isotopic rubidium ion flux by less than 20 percent, often by less than 15 percent, and frequently by less than 10 percent, of that elicited by an equal molar amount of (S)-(−)-nicotine.
(§1) The determination of the interaction of the compounds with muscle receptors was carried out in accordance with the techniques described in U.S. Pat. No. 5,597,919 to Dull et al., the subject matter of which is already incorporated herein by reference in its entirety. […] The maximal activation for individual compounds (Emax) was determined as a percentage of the maximal activation induced by (S)-(−)-nicotine.

[4] = target: T3, ganglionic receptors (ganglionic-type nicotinic receptors) (Rattus norvegicus, UniProt P04757+P12392); assay: Determination of interaction with ganglia; format: cell-based; details: maximal activation (Emax) as percentage of maximal activation induced by (S)-(-)-nicotine
T3 construct: endogenous in cells; host or cells: cell preparations derived from the adrenal gland
T3 sequence (P04757 26-499): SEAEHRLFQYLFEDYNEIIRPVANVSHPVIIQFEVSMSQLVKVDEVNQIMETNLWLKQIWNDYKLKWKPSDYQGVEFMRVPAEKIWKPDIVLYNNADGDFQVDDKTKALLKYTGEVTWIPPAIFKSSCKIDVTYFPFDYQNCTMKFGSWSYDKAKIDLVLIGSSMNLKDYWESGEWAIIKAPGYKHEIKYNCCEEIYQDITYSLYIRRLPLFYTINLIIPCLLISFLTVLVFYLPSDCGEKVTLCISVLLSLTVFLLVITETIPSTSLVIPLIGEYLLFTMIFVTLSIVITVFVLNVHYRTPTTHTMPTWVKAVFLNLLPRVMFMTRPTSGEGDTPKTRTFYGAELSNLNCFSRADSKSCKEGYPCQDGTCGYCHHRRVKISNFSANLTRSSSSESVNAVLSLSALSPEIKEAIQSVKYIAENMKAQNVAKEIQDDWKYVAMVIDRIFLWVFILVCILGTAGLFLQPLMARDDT
T3 sequence (P12392 21-495): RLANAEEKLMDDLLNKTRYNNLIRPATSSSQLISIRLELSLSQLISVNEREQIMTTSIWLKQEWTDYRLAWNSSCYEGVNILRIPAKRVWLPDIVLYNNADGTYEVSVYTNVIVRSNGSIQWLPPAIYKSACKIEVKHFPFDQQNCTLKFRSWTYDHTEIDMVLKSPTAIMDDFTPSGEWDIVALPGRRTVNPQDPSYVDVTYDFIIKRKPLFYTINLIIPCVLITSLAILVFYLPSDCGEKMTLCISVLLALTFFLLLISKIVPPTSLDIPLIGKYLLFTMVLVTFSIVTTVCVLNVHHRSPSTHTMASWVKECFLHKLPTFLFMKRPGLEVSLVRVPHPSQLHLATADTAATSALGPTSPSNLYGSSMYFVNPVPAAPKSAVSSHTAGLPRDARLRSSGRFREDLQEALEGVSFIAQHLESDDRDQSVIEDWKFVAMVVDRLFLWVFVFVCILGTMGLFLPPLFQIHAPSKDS
Description: By this is meant that a particular dose of compound resulting in prevention and/or treatment of a CNS disorder is essentially ineffective in eliciting activation of certain ganglionic-type nicotinic receptors. […] As such, the compounds of the present invention have poor ability to cause isotopic rubidium ion flux through nicotinic receptors in cell preparations derived from the adrenal gland. Generally, the compounds useful in the present invention activate isotopic rubidium ion flux by less than 25 percent, often by less than 15 percent, frequently by less than 10 percent, and even essentially 0 percent, of that elicited by an equal molar amount of (S)-(−)-nicotine.
as §1, with “ganglionic” for “muscle”

T1 sequence (P09483 31-630): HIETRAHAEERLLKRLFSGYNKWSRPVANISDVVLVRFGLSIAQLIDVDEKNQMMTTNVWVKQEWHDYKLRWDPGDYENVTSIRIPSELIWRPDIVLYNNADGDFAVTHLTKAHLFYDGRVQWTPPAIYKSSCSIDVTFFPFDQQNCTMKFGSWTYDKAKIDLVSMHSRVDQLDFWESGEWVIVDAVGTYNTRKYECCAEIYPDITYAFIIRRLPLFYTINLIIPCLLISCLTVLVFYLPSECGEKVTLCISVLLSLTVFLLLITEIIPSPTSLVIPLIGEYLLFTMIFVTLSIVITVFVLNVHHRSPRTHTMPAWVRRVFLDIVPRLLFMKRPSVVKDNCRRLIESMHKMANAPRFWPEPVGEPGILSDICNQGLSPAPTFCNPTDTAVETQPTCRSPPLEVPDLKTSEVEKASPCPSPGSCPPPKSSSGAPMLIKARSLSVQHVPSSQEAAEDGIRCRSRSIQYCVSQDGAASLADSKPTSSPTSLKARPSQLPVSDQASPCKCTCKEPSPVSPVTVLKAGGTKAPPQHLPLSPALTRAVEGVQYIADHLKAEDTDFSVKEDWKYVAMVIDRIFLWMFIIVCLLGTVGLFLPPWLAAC
T1 sequence (P12390 25-500): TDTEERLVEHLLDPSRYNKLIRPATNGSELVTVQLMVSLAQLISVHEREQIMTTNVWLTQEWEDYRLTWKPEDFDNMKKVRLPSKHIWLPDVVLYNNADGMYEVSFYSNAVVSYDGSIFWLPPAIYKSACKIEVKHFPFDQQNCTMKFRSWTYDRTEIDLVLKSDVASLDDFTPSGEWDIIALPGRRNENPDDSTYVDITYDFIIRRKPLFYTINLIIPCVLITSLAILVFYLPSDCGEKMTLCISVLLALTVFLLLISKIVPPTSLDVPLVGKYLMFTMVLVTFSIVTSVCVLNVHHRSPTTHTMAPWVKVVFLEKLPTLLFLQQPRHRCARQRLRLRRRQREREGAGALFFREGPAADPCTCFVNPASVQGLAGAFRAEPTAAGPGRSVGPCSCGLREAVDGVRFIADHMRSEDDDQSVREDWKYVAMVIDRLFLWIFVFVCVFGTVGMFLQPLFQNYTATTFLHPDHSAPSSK

CNCC/C=C/c1cncc(OCc2ccccc2)c1 [Sample No. 1, (E)-N-Methyl-4-[3-(5-benzyloxypyridin)yl]-3-buten-1-amine]
pKi [1]: 8.30
EC50 [2]: 4000 nM
Muscle Effect (% nicotine) [3]: 12 % nicotine
Ganglion Effect (% nicotine) [4]: 0 % nicotine

NCC/C=C/c1cccnc1.O=C(O)/C=C/C(=O)O.O=C(O)/C=C/C(=O)O [Sample No. 6, (E)-4-(3-pyridinyl)-3-buten-1-amine difumarate]
pKi [1]: 6.92
EC50 [2]: 5020 nM
Emax [2]: 81%
Muscle Effect (% nicotine) [3]: 15 % nicotine
Ganglion Effect (% nicotine) [4]: 23 % nicotine

NCC/C=C/c1cncc(Br)c1 [Sample No. 2, (E)-4-[3-(5-Bromopyridin)yl]-3-buten-1-amine Hemifumarate]
pKi [1]: 7.10
EC50 [2]: 2400 nM
Emax [2]: 107%
Muscle Effect (% nicotine) [3]: 8 % nicotine
Ganglion Effect (% nicotine) [4]: 11 % nicotine

CNCC/C=C/c1cncc(N)c1 [Sample No. 9, (E)-N-methyl-4-[3-(5-aminopyridin)yl]-3-buten-1-amine]
pKi [1]: 6.18
EC50 [2]: 2000 nM
Emax [2]: 85%
Muscle Effect (% nicotine) [3]: 4 % nicotine
Ganglion Effect (% nicotine) [4]: 4 % nicotine

CNCC/C=C/c1cncc(Oc2ccccc2)c1 [Sample No. 3, (E)-N-Methyl-4-[3-(5-phenoxypyridin)yl]-3-buten-1-amine]
pKi [1]: 7.68
EC50 [2]: 114 nM
Muscle Effect (% nicotine) [3]: 5 % nicotine
Ganglion Effect (% nicotine) [4]: <15 % nicotine

CN1CCC[C@H]1c1cccnc1 [Sample No. C-1, (S)-(−)-nicotine, reference compound]
Muscle Effect (% nicotine) [3]: 100 % nicotine
Ganglion Effect (% nicotine) [4]: 100 % nicotine

CCOc1cncc(/C=C/CCNC)c1 [Sample No. 7, (E)-N-Methyl-4-[3-(5-ethoxypyridin)yl]-3-buten-1-amine Sesquifumarate]
pKi [1]: 8.30
pEC50 ([2]; read-out: Dopamine Release EC50): 6.56
Emax [2]: 70%
Muscle Effect (% nicotine) [3]: 3 % nicotine
Ganglion Effect (% nicotine) [4]: <15 % nicotine

NCC/C=C/c1cncc(Br)c1 (as salt: fumarate) [Sample No. 2, (E)-4-[3-(5-Bromopyridin)yl]-3-buten-1-amine Hemifumarate]
melting point: 175 to 176.5 °C

CNCC/C=C/c1cncc(-c2ccccc2)c1 [Sample No. 8, (E)-N-Methyl-4-[3-(5-phenylpyridin)yl]-3-buten-1-amine]
pKi [1]: 6.74
EC50 [2]: > 100000 nM
Muscle Effect (% nicotine) [3]: 8 % nicotine
Ganglion Effect (% nicotine) [4]: 0 % nicotine

CNCC/C=C/c1cncc(OC(C)C)c1 [Sample No. 4, (E)-N-Methyl-4-[3-(5-isopropoxypyridin)yl]-3-buten-1-amine]
pKi [1]: 8.22
Muscle Effect (% nicotine) [3]: 8 % nicotine
Ganglion Effect (% nicotine) [4]: <15 % nicotine

CNCC/C=C/c1cncc(COC)c1 [Sample No. 5, (E)-N-Methyl-4-[3-(5-methoxymethylpyridin)yl]-3-buten-1-amine]
pKi [1]: 6.89
EC50 [2]: 16000 nM
Muscle Effect (% nicotine) [3]: 13 % nicotine
Ganglion Effect (% nicotine) [4]: 0 % nicotine
